Measurements as given in patent US20070213297A1, “Arrays with cleavable linkers” (priority 2004, published 2007).
Marks after values point to notes of the source that are not given here.

Key:
chicken ST6GalNAc-I = target: T1, chicken ST6GalNAc-I (Gallus gallus, UniProt Q92183); experiment: chST6GalNAc-I activity on small acceptor molecules; type: biochemical; conditions: α-D-galacto derivatives as acceptors
T1 construct: made in house; host or cells: insect cells
Excerpt: The inventors have previously reported the cloning, expression, and characterization of chicken ST6GalNAc-I and its use in preparative synthesis of the O-linked sialoside antigens, STn-, α(2-6)SiaT-, α(2-3)SiaT- and Di-SiaT-antigen. Blixt, O.; Allin, K.; Pereira, L.; Datta, A. and Paulson, J. C., J. Am. Chem. Soc. 2002, 124, 5739-5746. Briefly, the recombinant enzyme was expressed in insect cells and purified by CDP-sepharose affinity chromatography to generate approximately 10 U/L of cell culture.

2G12 anti-HIV antibody = experiment: 2G12 binding to glycan array printed on glass slide; design: species or system human; conditions: for Rel. spec. (relative binding activity of 2G12): glass slide glycan array, 2G12 pre-complexed with anti-IgG-FITC; for 2G12 binding on glycan array (in words): initial experiments
Protocol: Construction of a glycan array printed on a glass slide: The library of carbohydrate structures was obtained through chemical and chemo-enzymatic synthesis as described above, as well as natural sources. This compound library contained a N-hydroxy succinimide (NHS)-reactive primary amino group, which was printed on a commercial NHS-activated glass surface (Accelr8 Technology Corporation, Denver, Colo.) using a microarray gene printer (TSRI).
Each glycan type was printed (≈0.5 nL/spot) at various concentrations (10-100 μM) and each concentration in a replicate of six. Slides were further incubated with ethanolamine buffer to deactivate remaining NHS functional groups.
The 2G12 antibody was pre-complexed (for 10 min) with secondary human anti-IgG-FITC (2:1, 20 μg/mL) prior to application to the glycan array. After incubation with the 2G12 antibodies, the array washed by dipping the slide in buffer and water.

β3GlcNAcT = β3GlcNAcT acceptor specificity; type: biochemical, N. meningitidis; conditions: as acceptor substrate; lactose (4) = 100%
Protocol: Both enzymes, β4GalT-GalE and β3GlcNAcT, were over expressed in E. coli AD202 in a large-scale fermentor (100 L). Bacteria were cultured in 2YT medium and induced with iso-propyl-thiogalactopyranoside (IPTG) to ultimately produce 8-10 g of bacterial cell paste/L cell media. The enzymes were then released from the cells by a microfluidizer and were solubilized in Tris buffer (25 mM, pH 7.5) containing manganese chloride (10 mM) and Triton X (0.25%) to reach enzymatic activities of about 50 U/L and 115 U/L of cell culture β4GalT-GalE and β3GlcNAcT, respectively.
The structures of these disaccharides are provided below. [drawing 17]
Adding the hydrophobic para-nitrophenyl ring as an aglycon to the reducing end of the acceptors enhanced the activity of the enzyme up to 10 fold (compare 4 with 5 and 6 with 7). The increase in the enzyme activity by adding a hydrophobic aglycon to the acceptor sugar, though to the lesser extent, has also been shown for β4GalT (compare 12 with 13, 14). The relaxed substrate specificity of these enzymes makes them very useful for preparative synthesis of various carbohydrate structures, including poly-N-acetyllactosamines.

2G12 antibody [1] = experiment: Carbohydrate microarray analysis of oligomannose-2G12 binding (microtiter plate); design: species or system human
Protocol: Carbohydrate microarray analysis. Ninety-six well NHS-coated microtiter plates (NoAb Biodiscoveries) were treated with 200 μL of a 1 mM methanolic solution of the amino-functionalized disulfide and alkyne containing linker (scheme V) containing 5% diisopropylethylamine (DIEA) and incubated overnight at 4° C. The microtiter plate was then washed with 2×200 μL methanol and 2×200 μL water. Next, 200 μL solutions of azido-functionalized oligomannose derivatives 21-25 at varying concentrations from 0 to 500 μM in 5% DIEA/methanol were introduced. A sprinkle of copper (I) iodide was added and the contents were allowed to react overnight at 4° C. The next day, the contents were removed and the plates were washed with 2×200 μL methanol and 2×200 μL water. The plates were then blocked with 0.1% Tween20 solution in HEPES buffer pH 7.5 at 4° C. for 1 hour and then washed with 3×200 μL HEPES buffer. […] Detection of the FITC-tagged secondary antibody was performed in 200 μL water using a fluorescence plate reader. […]
Carbohydrate Microarray Analysis. […] Kd values for the interaction of 2G12 with oligomannoses 4, 5, 7, 8, 9 (Table 9) were determined using a microtiter-based assay with detection via a fluorescent secondary antibody (see Bryan et al. (2004) J. Am. Chem. Soc. 126, 8640-41).

2G12 antibody [2] = experiment: 2G12 binding, cleavable linker glycan array in microtiter plates; design: species or system human
Protocol: Cleavable Linker Glycan Array in Microtiter Plates: Further experiments were performed using glycans immobilized within microtiter wells with the cleavable triazole linkers described in Example 7 as shown in FIG. 11.
2G12 Binding: After washing with QH2O, wells were blocked with 10 mM HEPES buffer, pH 7.5/150 mM NaCl buffer (200 μL) containing 0.1% Tween-20 over 1 h at 4° C. The buffer was then removed and 2G12 (17 μg/mL PBS buffer; 200 μL) was incubated in the well over 1 h at 4° C. Wells were then washed with PBS buffer (3×; 200 μL) and fluorescein-conjugated Goat Anti-Human IgG antibody (14 μg/mL PBS buffer; 200 μL) was incubated in the well over 1 h in the dark at 4° C. Wells were then washed with PBS buffer (3×; 200 μL) and fluorescence was measured with an excitation wavelength of 485 nm and emission wavelength of 535 nm.
Further studies were performed using a cleavable linker array to clarify the types of mannose-containing glycans bound by the 2G12 anti-HIV antibodies. […] The results of a binding study using increasing amounts of labeled Manα1,2Manα1,3Manα1,2 Manα1,6Man glycan with a constant amount of 2G12 antibody are shown in FIG. 16.

T1 sequence (Q92183 whole entry): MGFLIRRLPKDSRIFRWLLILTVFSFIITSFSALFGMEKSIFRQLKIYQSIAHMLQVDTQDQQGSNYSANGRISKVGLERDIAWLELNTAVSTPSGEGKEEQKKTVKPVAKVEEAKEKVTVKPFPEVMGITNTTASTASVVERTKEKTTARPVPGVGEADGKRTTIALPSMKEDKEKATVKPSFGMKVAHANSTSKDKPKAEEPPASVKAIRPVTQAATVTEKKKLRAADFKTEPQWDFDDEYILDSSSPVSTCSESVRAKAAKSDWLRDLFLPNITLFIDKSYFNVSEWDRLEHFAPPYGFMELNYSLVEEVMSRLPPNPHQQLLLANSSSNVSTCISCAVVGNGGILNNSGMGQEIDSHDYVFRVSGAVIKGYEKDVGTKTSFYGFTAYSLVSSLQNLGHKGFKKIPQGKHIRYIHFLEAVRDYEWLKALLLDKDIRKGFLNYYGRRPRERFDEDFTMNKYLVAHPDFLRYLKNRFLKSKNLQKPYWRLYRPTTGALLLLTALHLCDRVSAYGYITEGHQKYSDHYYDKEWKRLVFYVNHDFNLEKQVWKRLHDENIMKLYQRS

OCC1O[C@@H](O)C(O)[C@@H](O)[C@@H]1O[C@@H]1OC(CO)[C@H](O)[C@H](O)C1O (stereo partly shown) [Compound 4]
chST6GalNAc-I activity, nmol/mg x min^−1 (chicken ST6GalNAc-I): 2.90 nmol/mg x min^−1 | Rel. spec. (relative binding activity of 2G12) (2G12 anti-HIV antibody): − (- = <1000) | Relative enzyme activity (%) β(1-3)GlcNAcT-activity (β3GlcNAcT): 100%

O=[N+]([O-])c1ccc(O[C@@H]2OC(CO)[C@@H](O[C@@H]3OC(CO)[C@H](O)[C@H](O)C3O)[C@H](O)C2O)cc1 (stereo partly shown) [Compound 5]
chST6GalNAc-I activity, nmol/mg x min^−1 (chicken ST6GalNAc-I): 1.30 nmol/mg x min^−1 | Rel. spec. (relative binding activity of 2G12) (2G12 anti-HIV antibody): − (- = <1000)

CC(=O)N[C@H]1C(O)O[C@H](CO)[C@@H](O[C@@H]2O[C@H](CO)[C@H](O)[C@H](O)[C@H]2O)[C@@H]1O (stereo partly shown) [Compound 6]
chST6GalNAc-I activity, nmol/mg x min^−1 (chicken ST6GalNAc-I): 12.50* nmol/mg x min^−1 | Rel. spec. (relative binding activity of 2G12) (2G12 anti-HIV antibody): − (- = <1000) | Relative enzyme activity (%) β(1-3)GlcNAcT-activity (β3GlcNAcT): 7%

CC(=O)N[C@@H]1[C@@H](O)[C@@H](O)[C@@H](CO)O[C@@H]1O [D-GaINAc, reference compound]
chST6GalNAc-I activity, cpm (chicken ST6GalNAc-I): 0 cpm | chST6GalNAc-I activity, nmol/mg x min^−1 (chicken ST6GalNAc-I): 0.00 nmol/mg x min^−1

NCCCCCO[C@H]1O[C@H](CO[C@H]2O[C@H](CO)[C@@H](O)[C@H](O)[C@@H]2O[C@H]2O[C@H](CO)[C@@H](O)[C@H](O)[C@@H]2O)[C@@H](O)[C@H](O[C@H]2O[C@H](CO)[C@@H](O)[C@H](O)[C@@H]2O[C@H]2O[C@H](CO)[C@@H](O)[C@H](O)[C@@H]2O)[C@@H]1O [Oligomannose 5]
2G12 affinity ranking (in words) (2G12 antibody [1]): greatest affinity

Man-8#aa Man8-aminoacid [Glycan 144]
2G12 binding on glycan array (in words) (2G12 anti-HIV antibody): Binding was observed

Man-9#aa Man9-aminoacid [Glycan 145]
2G12 binding on glycan array (in words) (2G12 anti-HIV antibody): smaller level of binding

Manα1,2 Manα1,2 Manα1,3Man
2G12 epitope/affinity (in words) (2G12 antibody [2]): optimal epitope(s) with micromolar affinity to 2G12 | Kd (2G12 antibody [2]): 100 nM

Manα1,2Manα1,3Manα1,2 Manα1,6Man
2G12 epitope/affinity (in words) (2G12 antibody [2]): optimal epitope(s) with micromolar affinity to 2G12
